Assays:
[1] = Urinary recovery of active ingredient over 0-24 hours (HPLC); parameters: species or system human; details: in vivo
Protocol: After measuring volume and pH, aliquots were stored below -15° C. pending assay for the active ingredient by a validated HPLC procedure.
The resulting linear regression was used to determine urine concentrations of the active ingredient in each sample. Recovered amounts of the active ingredient were then calculated from the urine volume for the collection period of each sample.

[2] = pH 6.0-7.0; cited from earlier work

Compound	Excretion [1]	Metabolism [1]	Solubility [2]
Cc1[nH]c(=O)c(C#N)cc1-c1ccncc1 [1,2-dihydro-3-cyano-6-methyl-5-(4-pyridinyl)-2(1H)-pyridinone]	excreted in the urine	only slightly metabolized	–
OCCN(CCO)c1nc(N2CCCCC2)c2nc(N(CCO)CCO)nc(N3CCCCC3)c2n1 [dipyridamole]	–	–	insoluble
